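Dose response: 5 concentrations. Exposure: 48 h. Format: 96-well plates. Endpoint: linear interpolation; highest concentration if not reached. GI50 = concentration required for 50% inhibition of growth.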 Calls of active or inactive are those of the source. Cut-off read from the data, not from the text of the source: active = GI50 up to about 1.1 µM and inactive = higher.
Columns and labels:
Test in all cases: NCI tumour cell line growth inhibition, 48 h
[1] = system: HCC 2998
[2] = system: HT-29
[3] = system: HL-60
[4] = system: A549
[5] = system: OVCAR-5
[6] = system: MOLT-4
[7] = system: RPMI-8226
[8] = system: IGROV-1
[9] = system: SK-MEL-2
[10] = system: RXF 393
[11] = system: ACHN
[12] = system: LXFL 529
[13] = system: SN12C
[14] = system: EKVX
[15] = system: HCT-15
[16] = system: SF-268
[17] = system: SNB-75
[18] = system: SR

SMILES | GI50 [1] | GI50 [2] | GI50 [3] | GI50 [4] | GI50 [5] | GI50 [6] | GI50 [7] | GI50 [8] | GI50 [9] | GI50 [10] | GI50 [11] | GI50 [12] | GI50 [13] | GI50 [14] | GI50 [15] [µM] | GI50 [16] | GI50 [17] | GI50 [18]
Cc1cc(C)c(S(=O)(=O)ONC(=O)OC(C)(C)C)c(C)c1 | > 100 µM (inactive) | > 100 µM (inactive) | > 100 µM (inactive) | > 100 µM (inactive) | > 100 µM (inactive) | > 100 µM (inactive) | > 100 µM (inactive) | > 100 µM (inactive) | > 100 µM (inactive) | > 100 µM (inactive) | > 100 µM (inactive) | > 100 µM (inactive) | > 100 µM (inactive) | > 100 µM (inactive) | > 100 | > 100 µM (inactive) | > 100 µM (inactive) | 
Cc1ccc(NC(=O)/C(=N\NC(N)=S)C(C#N)c2ccccc2C)cc1C (stereo not drawn) | > 100 µM (inactive) | > 100 µM (inactive) | > 100 µM (inactive) | > 100 µM (inactive) | > 100 µM (inactive) | > 100 µM (inactive) | > 100 µM (inactive) | > 100 µM (inactive) | > 100 µM (inactive) |  | > 100 µM (inactive) | > 100 µM (inactive) | > 100 µM (inactive) | > 100 µM (inactive) | > 100 | > 100 µM (inactive) | 66.5 µM (inactive) | > 100 µM (inactive)
Cc1nc2c(nc1C)C(=O)c1cc(O)ccc1C2=O | > 67.6 µM (inactive) | 35.2 µM (inactive) | 31 µM (inactive) | 77.6 µM (inactive) | > 100 µM (inactive) | > 66.7 µM (inactive) | > 51.1 µM (inactive) | 68.9 µM (inactive) | 55.6 µM (inactive) | > 100 µM (inactive) | > 100 µM (inactive) | > 100 µM (inactive) | > 73.5 µM (inactive) | > 100 µM (inactive) | 36.9 | 74.3 µM (inactive) | > 100 µM (inactive) | 51.1 µM (inactive)
CC1CC(=O)c2c(ccc3c2C(=O)c2cccc(O)c2C3=O)C1 (stereo not drawn) | 10.4 µM (inactive) | 3.74 µM (inactive) | 2.77 µM (inactive) | 7.16 µM (inactive) | 20.6 µM (inactive) | 2.13 µM (inactive) | 3.34 µM (inactive) | > 10 µM (inactive) | 8.81 µM (inactive) |  |  | 4.31 µM (inactive) |  | 14.6 µM (inactive) | 9.14 | 10.4 µM (inactive) | 10.4 µM (inactive) | 3.54 µM (inactive)
COC(=O)C1(C(=O)OC)CC(=O)c2cc3c(cc2-c2c(cc(OC)c(OC)c2OC)C1)OCO3 | > 211 µM (inactive) | > 211 µM (inactive) | 67.1 µM (inactive) | > 211 µM (inactive) | 88.3 µM (inactive) | 83.6 µM (inactive) |  | > 211 µM (inactive) | > 211 µM (inactive) | 54.7 µM (inactive) | > 211 µM (inactive) | 137 µM (inactive) | > 211 µM (inactive) | > 211 µM (inactive) | 204 | > 211 µM (inactive) |  | 70.3 µM (inactive)
O=C(Nc1ccc(F)cc1)C(=O)C(C1OC(=O)c2ccccc21)[N+](=O)[O-] (stereo not drawn) | > 100 µM (inactive) | > 100 µM (inactive) | > 100 µM (inactive) | > 100 µM (inactive) | > 100 µM (inactive) | > 100 µM (inactive) | > 100 µM (inactive) | > 100 µM (inactive) | > 100 µM (inactive) | > 100 µM (inactive) | > 100 µM (inactive) | > 100 µM (inactive) |  | > 100 µM (inactive) | > 100 | > 100 µM (inactive) | > 100 µM (inactive) | > 100 µM (inactive)
C[Si](C)(C)/C=C/CCC(C=O)(CCCl)c1ccccc1 (stereo not drawn) | 29.6 µM (inactive) | 14.6 µM (inactive) | 6.98 µM (inactive) | 23.4 µM (inactive) | 25.5 µM (inactive) | 16.3 µM (inactive) |  | 41.1 µM (inactive) | 14.8 µM (inactive) | 22.4 µM (inactive) | 22.8 µM (inactive) | 30.1 µM (inactive) | 31.4 µM (inactive) | 26 µM (inactive) | 19.5 | 31.7 µM (inactive) | 35.2 µM (inactive) | > 10 µM (inactive)
COC1=CC(=O)[C@]2(C)[C@H](C1=O)C(C)[C@H]2c1ccc(OC)cc1 (stereo partly drawn) | > 100 µM (inactive) | > 100 µM (inactive) | > 100 µM (inactive) | > 100 µM (inactive) | > 100 µM (inactive) | > 100 µM (inactive) | > 100 µM (inactive) | > 100 µM (inactive) | > 100 µM (inactive) | > 100 µM (inactive) | > 100 µM (inactive) | > 100 µM (inactive) |  | > 100 µM (inactive) | > 100 | > 100 µM (inactive) | > 100 µM (inactive) | > 100 µM (inactive)
O=[N+]([O-])c1ccc2nc(/C(=N/Nc3ccccc3)C(O)c3ccco3)c(O)nc2c1 (stereo not drawn) | > 100 µM (inactive) | > 100 µM (inactive) | 19.9 µM (inactive) | > 100 µM (inactive) |  | > 100 µM (inactive) | 58.3 µM (inactive) | > 100 µM (inactive) | > 100 µM (inactive) | 29.5 µM (inactive) | > 100 µM (inactive) | 42.1 µM (inactive) | > 100 µM (inactive) | 39 µM (inactive) | > 100 | 25.4 µM (inactive) | > 100 µM (inactive) | 55.2 µM (inactive)
O=C1C=CC2(CCC23C=CC(=O)O3)O1 (stereo not drawn) | > 100 µM (inactive) | > 100 µM (inactive) | 74.8 µM (inactive) | > 100 µM (inactive) | > 100 µM (inactive) | > 100 µM (inactive) | > 100 µM (inactive) | > 100 µM (inactive) | > 100 µM (inactive) | > 100 µM (inactive) | > 100 µM (inactive) | 81.3 µM (inactive) | > 100 µM (inactive) | > 100 µM (inactive) | > 100 | > 100 µM (inactive) | > 100 µM (inactive) | 
Cc1cccc(-c2nnc3s/c(=C\c4ccc(N(C)C)cc4)c(=O)n23)c1 | > 100 µM (inactive) |  | > 100 µM (inactive) | > 100 µM (inactive) | > 100 µM (inactive) | > 100 µM (inactive) | > 100 µM (inactive) | > 100 µM (inactive) | > 100 µM (inactive) | > 100 µM (inactive) | > 100 µM (inactive) | > 100 µM (inactive) | > 100 µM (inactive) | > 100 µM (inactive) |  | > 100 µM (inactive) | > 100 µM (inactive) | 
N[C@H](C(=O)O)[C@@H](Cl)CC(=O)O | > 100 µM (inactive) | > 100 µM (inactive) | > 100 µM (inactive) | > 100 µM (inactive) | > 100 µM (inactive) | > 100 µM (inactive) | > 100 µM (inactive) | > 100 µM (inactive) | > 100 µM (inactive) | > 100 µM (inactive) | > 100 µM (inactive) | > 100 µM (inactive) | > 100 µM (inactive) | > 100 µM (inactive) | > 100 | > 100 µM (inactive) | > 100 µM (inactive) | 
CN(C)c1nc(N(C)C)n2nc(-c3ccccc3[N+](=O)[O-])nc2n1 | > 100 µM (inactive) | > 100 µM (inactive) | > 100 µM (inactive) | > 100 µM (inactive) | > 100 µM (inactive) | > 100 µM (inactive) | 89.7 µM (inactive) | > 100 µM (inactive) | > 100 µM (inactive) | > 100 µM (inactive) | > 100 µM (inactive) | 86.3 µM (inactive) | > 100 µM (inactive) | > 100 µM (inactive) | 16.3 | > 100 µM (inactive) | > 100 µM (inactive) | > 100 µM (inactive)
N#Cc1cccc(C2C(=O)c3ccc(C(=O)c4ccc5c(c4)C(=O)N(c4ccc(Oc6ccc(N7C(=O)c8ccc(C(=O)c9ccc%10c(c9)C(=O)N(c9cccc(C#N)c9)C%10=O)cc8C7=O)cc6)cc4)C5=O)cc3C2=O)c1 (stereo not drawn) | > 100 µM (inactive) | > 100 µM (inactive) | > 100 µM (inactive) | > 100 µM (inactive) | > 100 µM (inactive) | > 100 µM (inactive) | > 100 µM (inactive) | > 100 µM (inactive) | > 100 µM (inactive) | > 100 µM (inactive) | > 100 µM (inactive) | > 100 µM (inactive) | > 100 µM (inactive) | > 100 µM (inactive) | > 100 | > 100 µM (inactive) | > 100 µM (inactive) | 
CCC(=O)N(O)C(C)(C)C | > 100 µM (inactive) | > 100 µM (inactive) | > 100 µM (inactive) | > 100 µM (inactive) | > 100 µM (inactive) | > 100 µM (inactive) | > 100 µM (inactive) | > 100 µM (inactive) |  | > 100 µM (inactive) | > 100 µM (inactive) | > 100 µM (inactive) | > 100 µM (inactive) |  | > 100 | > 100 µM (inactive) | 92.3 µM (inactive) | > 100 µM (inactive)
COC(=O)C1=C(C(=O)OC)C(C(=O)OC)C(C(=O)OC)=C1C(=O)OC | > 100 µM (inactive) | > 100 µM (inactive) | > 100 µM (inactive) | > 100 µM (inactive) | > 100 µM (inactive) | > 100 µM (inactive) | > 100 µM (inactive) | > 100 µM (inactive) | > 100 µM (inactive) | > 100 µM (inactive) | > 100 µM (inactive) | > 100 µM (inactive) | > 100 µM (inactive) | > 100 µM (inactive) | > 100 | > 100 µM (inactive) | > 100 µM (inactive) | 
